Holding throughout (assay type): cell-based
One test has as its system SK-MEL-2. The test can be described thus: NCI60 5-dose screen, SK-MEL-2. Conditions: Homo sapiens, melanoma, Fig 1D, read-out: Log10 GI50 (SK-MEL-2) (converted). Here is the method: (§1) The screening methodology used in the NCI60 Cell 5-Doses screen is described in detail at https://dtp.cancer.gov/discovery_development/nci-60/methodology.htm. Briefly, cells are seeded in 96 well plates at an appropriate density and incubated for 1 day. After 1 day, some of the plates are processed to determine a time zero density. To the remaining plates, compounds are added over a 5-log M concentration range (1 log dilutions from 10^-4M to 10^-8M). Plates are incubated for two additional days, then fixed and stained with sulforhodamine B. Growth inhibition is calculated relative to cells without drug treatment and the time zero control. The GI50 is the concentration of a compound that causes 50% growth inhibition, relative to the no drug control.

The next test relates to OVCAR-3. The test can be described thus: NCI60 5-dose screen, OVCAR-3. Conditions: Homo sapiens, ovarian cancer, Fig 1D, read-out: Log10 GI50 (OVCAR-3) (converted). Here is the method: as §1
In another test the test system is MDA-MB-435. The test can be described thus: NCI60 5-dose screen, MDA-MB-435. To be noted: Homo sapiens, melanoma, Fig 1D, read-out: Log10 GI50 (MDA-MB-435) (converted). Here is the method: as §1
Another test relates to MCF7. The test can be described thus: NCI60 5-dose screen, MCF7. To be noted: Homo sapiens, breast cancer, Fig 1D, read-out: Log10 GI50 (MCF7) (converted). Here is the method: as §1
Another test concerns MRC-5 cells. The experiment in a line: 3-day MTS cell viability assay, MRC-5. To be noted: Homo sapiens, MRC5, 72 hours, normal lung fibroblast cells, Fig 1C. Here is the method: (§2) All cancer cell lines (HT-29: colorectal adenocarcinoma, HCT-116: colorectal carcinoma, A549: lung epithelial carcinoma, PC3: prostate adenocarcinoma, Jurkat: acute T-cell leukemia, BC-1: primary effusion lymphoma) and the normal human embryonal lung fibroblast cell line MRC-5 were acquired from the American Type Culture Collection (ATCC). All cell lines were cultured as recommended by the suppliers. Culture media were purchased from Gibco (Thermo Fisher Scientific) and supplemented with 10 to 20% fetal bovine serum (HyClone, GE Healthcare Life Sciences) and 20–25 μg/mL gentamicin (Gibco, Thermo Fisher Scientific). […]
(§3) Cell viability in cancer cell lines treated with compound was measured in a 3-day MTS cell proliferation assay using the CellTiter 96 AQueous Non-Radioactive Cell Proliferation Assay reagent (Promega) according to the manufacturer’s instructions. Absorbance was read at 490 nm on a SaFire II microplate reader (Tecan). CC50 values were calculated by fitting the obtained MTS cell viability data in GraphPad Prism using a 4-parameter log–based fit for inhibitors. Apoptosis induction and cell death upon compound treatment in PBMC was measured using the Alexa Fluor 488 Annexin V/Dead Cell Apoptosis Kit (Thermo Fisher Scientific), with readout on a FACSCanto II flow cytometer (BD Biosciences). […] The compounds were evaluated in duplo in two independent experiments.

For the next test, the system named is NCI-H460. The experiment in a line: NCI60 5-dose screen, NCI-H460. Conditions: Homo sapiens, non-small cell lung cancer, Fig 1D, read-out: Log10 GI50 (NCI-H460) (converted). Here is the method:
as §1

The next test relates to PC3 cells. The experiment in a line: 3-day MTS cell viability assay, PC3. To be noted: Homo sapiens, PC-3, 72 hours, Fig 1C. Here is the method:
as §2, §3

For a further test, the system named is HS 578T. The test can be described thus: NCI60 5-dose screen, HS 578T. To be noted: Homo sapiens, breast cancer, Fig 1D, read-out: Log10 GI50 (HS 578T) (converted). Here is the method:
as §1

The test system of another test is SN12C. The experiment in a line: NCI60 5-dose screen, SN12C. To be noted: Homo sapiens, renal cancer, Fig 1D, read-out: Log10 GI50 (SN12C) (converted). Here is the method:
as §1

The next test relates to SK-OV-3. The test can be described thus: NCI60 5-dose screen, SK-OV-3. To be noted: Homo sapiens, ovarian cancer, Fig 1D, read-out: Log10 GI50 (SK-OV-3) (converted). Here is the method:
as §1

The subject of a further test is SK-MEL-5. The test can be described thus: NCI60 5-dose screen, SK-MEL-5. Conditions: Homo sapiens, melanoma, Fig 1D, read-out: Log10 GI50 (SK-MEL-5) (converted). Here is the method:
as §1

The next test concerns COLO 205. The experiment in a line: NCI60 5-dose screen, COLO 205. Conditions: Homo sapiens, colon cancer, Fig 1D, read-out: Log10 GI50 (COLO 205) (converted). Here is the method: as §1
The next test relates to A549 cells. The test can be described thus: 3-day MTS cell viability assay, A549. To be noted: Homo sapiens, 72 hours, Fig 1C. Here is the method:
as §2, §3

A further test relates to UO-31. The test can be described thus: NCI60 5-dose screen, UO-31. To be noted: Homo sapiens, renal cancer, Fig 1D, read-out: Log10 GI50 (UO-31) (converted). Here is the method:
as §1

The next test deals with U251. The experiment in a line: NCI60 5-dose screen, U251. Conditions: Homo sapiens, U-251; CNS cancer; Fig 1D; read-out: Log10 GI50 (U251) (converted). Here is the method: as §1
The next test deals with PBMC. The experiment in a line: Annexin V/PI flow cytometry viability, PBMC. To be noted: Homo sapiens, 72 hours, normal cells, Fig 1C.
Source text: Buffy coat preparations from healthy donors were obtained from the Blood Transfusion Center in Leuven, Belgium. Peripheral blood mononuclear cells (PBMC) were isolated by density gradient centrifugation over Lymphoprep™ (Axis Shield PoC AS; density 1.077 ± 0.001 g/mL) and cultured in cell culture medium (DMEM/F12, Gibco Thermo Fisher Scientific) containing 8% fetal bovine serum. Each donor consented to the use of his blood for research purposes.
as §3, with “Biosciences). For cell cycle analysis, Jurkat cells were seeded at 400,000 cells per well in 12-well tissue culture plates and treated with the test compounds at the indicated concentrations for 24 h.” for “Biosciences).”

Another test deals with ACHN. The experiment in a line: NCI60 5-dose screen, ACHN. Conditions: Homo sapiens, renal cancer, Fig 1D, read-out: Log10 GI50 (ACHN) (converted). Here is the method:
as §1

For the next test, the system named is PC-3. The experiment in a line: NCI60 5-dose screen, PC-3. Conditions: Homo sapiens, prostate cancer, Fig 1D, read-out: Log10 GI50 (PC-3) (converted). Here is the method: as §1
In the next test the test system is RPMI-8226. The experiment in a line: NCI60 5-dose screen, RPMI-8226. Conditions: Homo sapiens, leukemia, Fig 1D, read-out: Log10 GI50 (RPMI-8226) (converted). Here is the method: as §1
The test system of another test is SR. The test can be described thus: NCI60 5-dose screen, SR. To be noted: Homo sapiens, leukemia, Fig 1D, read-out: Log10 GI50 (SR) (converted). Here is the method: as §1

On to `Cc1cc(C)cc(Nc2ccc([N+](=O)[O-])c(NCCN3CCOCC3)n2)c1` [Compound 4AZA2891, 6-(3,5-dimethylanilino)-2-(2-morpholinoethylamino)-3-nitropyridine], for which the GI50 in the test with SK-MEL-2 was 34.7 nM; with OVCAR-3, less than 10 nM; with MDA-MB-435, less than 10 nM; in the test with MCF7, less than 10 nM; in the test on NCI-H460, 17.4 nM; with HS 578T it was 16.6 nM. Besides, the GI50 is 70.8 nM in the test on SN12C; 58.9 nM in the test on SK-OV-3; less than 10 nM with SK-MEL-5; 21.4 nM in the test on COLO 205; 1380 nM in the test on UO-31; 30.9 nM with U251. The GI50 in the test with ACHN was 12 nM; in the test on PC-3, 10.5 nM; with RPMI-8226, 36.3 nM; in the test with SR it was 17.4 nM. The IC50 in the test with MRC-5 cells was 29600 nM; in the test on PC3 cells it was 11.9 nM; with A549 cells, 20.3 nM; in the test on PBMC, 76700 nM.
As to `Cc1ccnc(Nc2ccc([N+](=O)[O-])c(NCCN3CCOCC3)n2)c1` [Compound 4AZA2996, N^6-(4-methylpyridin-2-yl)-N^2-(2-morpholinoethyl)-3-nitropyridine-2,6-diamine], the GI50 in the test on SK-MEL-2 was 30.2 nM; with OVCAR-3, less than 10 nM; with MDA-MB-435, less than 10 nM; in the test with MCF7 it was less than 10 nM; in the test with NCI-H460, less than 10 nM; in the test on HS 578T it was less than 10 nM. Besides, the GI50 in the test on SN12C was 47.9 nM; in the test with SK-OV-3 it was less than 10 nM; in the test with SK-MEL-5, less than 10 nM; in the test on COLO 205, less than 10 nM; in the test with UO-31, less than 10 nM; with U251, less than 10 nM. For the same compound, the GI50 was less than 10 nM with ACHN, less than 10 nM in the test with PC-3, 26.9 nM in the test on RPMI-8226 and less than 10 nM with SR. Also, the IC50 was 23300 nM in the test with MRC-5 cells, 9.5 nM in the test with PC3 cells, 12 nM in the test on A549 cells and 14100 nM in the test on PBMC.

Source of the values: publication PMC11542830, “3-nitropyridine analogues as novel microtubule-targeting agents” (PLOS ONE, 2024).
